For the assay, the system named is SPOP MATH domain. Nature of the assay: Linear free energy relationship (LFER) analysis of binding to SPOP MATH wildtype and mutant variants. The conditions noted are these: LFER over MATH wildtype and mutant variants. The text has this:
A powerful method used to address the mechanism of binding between ligands is to study the effect of structural perturbation on the transition and ground states. This approach, classically denoted as Leffler or Linear Free Energy Relationship (LFER) analysis, aims at analyzing the correlation of the change in activation free energy to the change in equilibrium free energy; LFER analysis has been used in organic chemistry, protein folding, enzymology, and protein–protein interaction studies to decipher the position of the transition state of a reaction along the reaction coordinates. The analysis of the dependences of the microscopic association and dissociation rate constants over the equilibrium constant of each MATH variant to Puc and MacroH2A are reported in Figure 5.
Figure 5 Linear free energy relationship for the binding of MATH wildtype and mutant variants to the peptides Puc (panels (A,B)) and MacroH2A (panels (C,D)). Panels (A,C) represent the dependences of the microscopic association rate constant kon on the equilibrium dissociation constant. Panels (B,D) represent the dependences of the microscopic dissociation rate constant koff on the equilibrium dissociation constant. The blue and red dots represent the dependences of kon or koff on the equilibrium dissociation constant (KD), respectively.

As to DEVTSTTSSS [Puc], the “slope of log koff versus log KD” value turned out to be 0.36 ± 0.09 and the “slope of log kon vs. log KD” value is recorded as −0.64 ± 0.09.
As to KAASADSTTEGTPAD [MacroH2A], the “slope of log koff versus log KD” value worked out at 0.02 ± 0.11 and the “slope of log kon vs. log KD” value was −0.98 ± 0.11.

The values above are taken from paper PMC10743451, “Addressing the Binding Mechanism of the Meprin and TRAF-C Homology Domain of the Speckle-Type POZ Protein Using Protein Engineering” (International Journal of Molecular Sciences, 2023).
